Data set [1] is described as follows: Metabolic stability in human liver microsomes assessed as intrinsic clearance per mg protein. The data set is classed as ADME, Microsome.
Data set [2] in a line: Aqueous solubility in phosphate buffer at pH 6.5 by lyophilisation solubility assay. It is filed as physicochemical.
Data set [3] can be described thus: Metabolic stability in mouse liver microsomes assessed as intrinsic clearance per mg protein. It is filed as ADME, Microsome.

In brackets after ≈: the same amount, converted by molar mass. A value given as a limit tells only on which side of the number the result lay.

Consider `O=C(CNC(=O)c1ccc(F)cc1)NC(c1cccc(F)c1)c1cccc(F)c1`, for which the microsomal CLint in data set [1] was found to be 9.7 µL/min/mg. This compound also displayed a solubility in data set [2] of less than 1 µg/mL.

With `O=C(CNC(=O)c1ccc(F)cc1)NC(c1ccccc1)c1cccc(C(F)(F)F)c1` (centres undefined), in data set [3], the microsomal CLint stood at 19.3 µL/min/mg. Also, in data set [2], the solubility is less than 1 µg/mL.

For `O=C(CCc1ccccc1)NCC(=O)NC(c1ccccc1)c1ccc(Cl)cc1` (centres undefined), the results for the microsomal CLint in data set [1] and in data set [3] were 887 µL/min/mg and 926 µL/min/mg, respectively. In data set [2], this compound yielded a solubility of less than 1 µg/mL.

In the case of `N#Cc1ccc(C(=O)NCC(=O)NC(c2ccccc2)c2ccc(Cl)cc2)cc1` (centres undefined), the microsomal CLint in data set [3] is 8.6 µL/min/mg. The solubility in data set [2] worked out at 7 µg/mL (≈ 17.3 µM).

(Values after ChEMBL document CHEMBL1144246, “Design, synthesis and structure-activity relationship of simple bis-amides as potent inhibitors of GlyT1” (Bioorg Med Chem Lett, 2008).)
